Counter-ions that a name gives are not always drawn.
Tests used:
human H3 receptor = target: T1, human H3 receptor (Homo sapiens, UniProt Q9Y5N1); experiment: Human H3 radioligand binding ([3H]-N-alpha-methylhistamine, SPA); settings: membranes of CHO cells expressing human H3 receptor; [3H]-N-alpha-methylhistamine about 1 nM
T1 construct: expressed in transfected cells; membrane preparation
Protocol: (§1) Methods: CHO cells stably expressing the human H3 receptor (GenBank: NM_007232) were harvested and cell pellets were frozen (−80° C.). Cell pellets were resuspended in 5 mM Tris-HCl, pH 7.5 with […] and a cocktail of protease inhibitors (Complete Protease Inhibitior Tablets, Roche Diagnostics). Cells were disrupted using a polytron cell homogenizer and the suspension was centrifuged at 1000×g for 10 minutes at 4° C. The pellet was discarded and the supernatant centrifuged at 40,000×g for 30 min at 4° C. This membrane pellet was washed in membrane buffer containing 50 mM Tris-HCl, pH 7.5 with 0.6 mM EDTA, 5 mM MgCl2 and protease inhibitors, recentrifuged as above and the final pellet resuspended in membrane buffer plus 250 mM sucrose and frozen at −80° C.
(§2) Radioligand Binding. Membranes were resuspended in 50 mM Tris HCl (pH 7.4), 5 mM MgCl2, 0.1% BSA. The membrane suspensions (10 μg protein per well) were incubated in a 96 well microtiter plate with [^3H]-N-alpha-methylhistamine (approximately 1 nM final concentration), test compounds at various concentrations (0.01 nM-30 μM) and scintillation proximity beads (Perkin Elmer, FlashBlueGPCR Scintillating Beads) in a final volume of 80 μl for 4 hours at room temperature, protected from light. Non-specific binding was determined in the presence of 10 μM clobenpropit. Radioligand bound to receptor, and therefore in proximity to the scintillation beads, was measured using a MicroBeta scintillation counter.

[1] = target: T2, rat histamine H3 receptor (Rattus norvegicus, UniProt Q9QYN8); experiment: Rat H3 radioligand binding ([3H]-N-alpha-methylhistamine, SPA); settings: membranes of CHO-A3 cells expressing rat H3 receptor; [3H]-N-alpha-methylhistamine about 1 nM
T2 construct: encoding the entire 445-amino-acid rat histamine H3 receptor; expressed in transfected cells; membrane preparation
Source text: as §1, with “Cell line development and membrane preparation. The rat” for “Methods: CHO cells stably expressing the human”, “cDNA was PCR amplified from reverse-transcribed RNA pooled from rat thalamus, hypothalamus, striatum and prefrontal cortex with a sequence corresponding to by #338-1672 of Genbank file #NM_053506, encoding the entire 445-amino-acid rat histamine H3 receptor. This was engineered into the pIRES-neo3 mammalian expression vector, which was stably transfected into the CHO-A3 cell line (Euroscreen, Belgium), followed by clonal selection by limiting dilution. Cells” for “(GenBank: NM_007232)”
as §2

T2 sequence (Q9QYN8 whole entry): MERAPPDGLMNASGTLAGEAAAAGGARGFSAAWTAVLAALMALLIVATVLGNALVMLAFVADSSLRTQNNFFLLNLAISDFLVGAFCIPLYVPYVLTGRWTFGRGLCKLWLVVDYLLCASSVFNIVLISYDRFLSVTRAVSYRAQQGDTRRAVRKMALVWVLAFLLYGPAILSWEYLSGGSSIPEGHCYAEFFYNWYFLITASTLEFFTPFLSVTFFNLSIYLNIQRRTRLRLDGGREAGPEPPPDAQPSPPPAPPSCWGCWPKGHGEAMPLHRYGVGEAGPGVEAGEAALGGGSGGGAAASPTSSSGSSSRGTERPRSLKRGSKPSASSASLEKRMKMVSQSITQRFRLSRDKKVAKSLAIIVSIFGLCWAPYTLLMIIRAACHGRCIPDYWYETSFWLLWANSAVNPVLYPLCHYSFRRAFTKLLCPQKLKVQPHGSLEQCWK
T1 sequence (Q9Y5N1 whole entry): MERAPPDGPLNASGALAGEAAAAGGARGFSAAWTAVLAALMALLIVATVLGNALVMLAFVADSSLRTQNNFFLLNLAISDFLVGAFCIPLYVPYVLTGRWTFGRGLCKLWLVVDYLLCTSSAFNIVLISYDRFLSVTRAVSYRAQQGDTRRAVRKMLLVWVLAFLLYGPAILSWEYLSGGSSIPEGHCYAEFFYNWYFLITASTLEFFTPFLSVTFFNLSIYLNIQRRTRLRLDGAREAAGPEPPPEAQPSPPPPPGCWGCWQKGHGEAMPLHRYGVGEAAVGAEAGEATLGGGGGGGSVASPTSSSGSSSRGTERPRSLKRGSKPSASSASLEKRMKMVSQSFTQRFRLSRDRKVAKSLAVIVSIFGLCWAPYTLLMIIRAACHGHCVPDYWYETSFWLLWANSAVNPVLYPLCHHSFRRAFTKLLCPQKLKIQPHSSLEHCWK

SMILES	melting point	Ki (human H3 receptor)	Ki [1]
O=c1cccnn1CCCOc1ccc2c(c1)CCC1(CCN(C3CCC3)CC1)O2 (as salt: HCl) [Example 24, 1′-Cyclobutyl-6-(3-(2-pyridazin-3-one)propyloxy]-spiro[3,4-dihydrobenzopyran-2,4′-piperidine]]	207 to 209 °C	–	–
O=c1cccnn1CC(O)COc1ccc2c(c1)CCC1(CCN(C3CCC3)CC1)O2 (stereo not drawn) (as salt: HCl) [Example 25, 1′-Cyclobutyl-6-(3-(2-pyridazin-3-one)-2-hydroxypropyloxy]-spiro[3,4-dihydrobenzopyran-2,4′-piperidine]]	201 to 203 °C	–	–
O=c1cc(-c2ccc3c(c2)COC2(CCN(C4CCC4)CC2)O3)cn[nH]1 (as salt: HCl) [Example 26]	258 to 262 °C	–	–
Cc1cc2c(cc1-c1ccc(=O)n(C)n1)COC1(CCN(C3CCC3)CC1)O2 (as salt: HCl) [Example 30]	269 to 270 °C	–	–
Cc1c(-c2ccc(=O)[nH]n2)ccc2c1COC1(CCN(C3CCC3)CC1)O2 (as salt: HCl) [Example 31]	255 to 257 °C	–	–
O=C1NN=C(c2ccc3c(c2)COC2(CCN(C4CCC4)CC2)O3)C2CC12 (stereo not drawn) (as salt: HCl) [Example 37]	> 300 °C	–	–
O=C1NN=C(c2ccc3c(c2)COC2(CCN(C4CCC4)CC2)O3)C2CCC12 (stereo not drawn) (as salt: HCl) [Example 38]	271 to 274 °C	–	–
CC1CC(=O)NN=C1c1ccc2c(c1)COC1(CCN(C3CCC3)CC1)O2 (stereo not drawn) (as salt: HCl) [Example 39]	209 to 214 °C	–	–
Cc1cc(=O)[nH]nc1-c1ccc2c(c1)COC1(CCN(C3CCC3)CC1)O2 (as salt: HCl) [Example 40]	265 to 267 °C	–	–
Cc1c(-c2ccc3c(c2)COC2(CCN(C4CCC4)CC2)O3)n[nH]c(=O)c1C (as salt: HCl) [Example 41]	> 300 °C	–	–
O=C1NN=C(c2ccc3c(c2)CCC2(CCN(C4CCC4)CC2)O3)C2CCC12 (racemic) [Example 10, 1′-Cyclobutyl-6-(3,4-diaza-bicyclo[4.2.0]oct-4-en-2-one-5-yl)-spiro[3,4-dihydrobenzopyran-2,4′-piperidine]]	–	< 200 nM	< 200 nM
O=C1NN=C(c2ccc3c(c2)CCC2(CCN(C4CCC4)CC2)O3)C2CCC12 (single isomer, unassigned) [Example 22]	–	< 200 nM	< 200 nM
O=C1NN=C(c2ccc3c(c2)CCC2(CCN(C4CCC4)CC2)O3)C2CCC12 (single isomer, unassigned) [Example 23]	–	< 200 nM	< 200 nM
O=C1CCC(c2ccc3c(c2)CC2(CCN(C4CCC4)CC2)O3)=NN1 [Example 1, 6-(1-Cyclobutyl-spiro[benzofuran-2(3H),4′-piperidine]-5-yl)-4,5-dihydro-2H-pyridazin-3-one]	207 to 209 °C	< 200 nM	< 200 nM
O=C1NN=C(c2ccc3c(c2)CC2(CCN(C4CCC4)CC2)O3)C2CC12 (stereo not drawn) [Example 2, l′-cyclobutyl-5-(3,4-diaza-bicyclo[4.1.0]hepten-2-one-5-yl)-spiro[benzofuran-2(3H),4′-piperidine]]	189 to 191 °C	< 200 nM	< 200 nM
CC1CC(=O)NN=C1c1ccc2c(c1)CC1(CCN(C3CCC3)CC1)O2 (stereo not drawn) [Example 3, 6-(1-Cyclobutyl-spiro[benzofuran-2(3H),4′-piperidine]-5-yl)-5-methyl-4,5-dihydro-2H-pyridazin-3-one]	213 to 215 °C	< 200 nM	200 to 1000 nM
Cc1cc(=O)[nH]nc1-c1ccc2c(c1)CC1(CCN(C3CCC3)CC1)O2 [Example 4, 6-(Cyclobutyl-spiro[benzofuran-2(3H),4′-piperidine]-5-yl)-5-methyl-2H-pyridazin-3-one]	243 to 245 °C	< 200 nM	< 200 nM
O=C1CCC(c2ccc3c(c2)CCC2(CCN(C4CCC4)CC2)O3)=NN1 [Example 5]	242 to 243.5 °C	< 200 nM	< 200 nM
O=C1NN=C(c2ccc3c(c2)CCC2(CCNCC2)O3)C2CC12 (stereo not drawn) [Example 6, 6-(3,4-diaza-bicyclo[4.1.0]hept-4-en-2-one-5-yl)-spiro[3,4-dihydrobenzopyran-2,4′-piperidine]]	–	> 1000 nM	> 1000 nM

SMILES	melting point	Ki (human H3 receptor)	Ki [1]
O=C1NN=C(c2ccc3c(c2)CCC2(CCN(C4CCC4)CC2)O3)C2CC12 (stereo not drawn) [Example 7, 1′-Cyclobutyl-6-(3,4-diaza-bicyclo[4.1.0]hept-4-en-2-one-5-yl)-spiro[3,4-dihydrobenzopyran-2,4′-piperidine]]	–	< 200 nM	< 200 nM
O=C1NN=C(c2ccc3c(c2)CCC2(CCN(C4CCCC4)CC2)O3)C2CC12 (stereo not drawn) [Example 8, 1′-Cyclopentyl-6-(3,4-diaza-bicyclo[4.1.0]hept-4-en-2-one-5-yl)-spiro[3,4-dihydrobenzopyran-2,4′-piperidine]]	–	< 200 nM	< 200 nM
CC(C)N1CCC2(CCc3cc(C4=NNC(=O)C5CC45)ccc3O2)CC1 (stereo not drawn) [Example 9]	–	< 200 nM	< 200 nM
CC1(C)CC(c2ccc3c(c2)CCC2(CCN(C4CCC4)CC2)O3)=NNC1=O [Example 11, 1′-Cyclobutyl-6-(4,4-dimethyl-4,5-dihydro-2H-pyridazin-3-one-6-yl)-spiro[3,4-dihydrobenzopyran-2,4′-piperidine]]	–	< 200 nM	< 200 nM
CC1CC(=O)NN=C1c1ccc2c(c1)CCC1(CCN(C3CCC3)CC1)O2 (stereo not drawn) [Example 12, 1′-Cyclobutyl-6-(5-methyl-4,5-dihydro-2H-pyridazin-3-one-6-yl)-spiro[3,4-dihydrobenzopyran-2,4′-piperidine]]	207 to 209 °C	< 200 nM	< 200 nM
Cc1cc(=O)[nH]nc1-c1ccc2c(c1)CCC1(CCN(C3CCC3)CC1)O2 [Example 13, 1′-Cyclobutyl-6-(5-methyl-2H-pyridazin-3-one-6-yl)-spiro[3,4-dihydrobenzopyran-2,4′-piperidine]]	270 to 272 °C	< 200 nM	< 200 nM
CC(C)N1CCC2(CCc3cc(C4=NNC(=O)C(C)(C)C4)ccc3O2)CC1 [Example 14]	210 to 213 °C	< 200 nM	< 200 nM
O=c1cccnn1CCCOc1ccc2c(c1)CCC1(CCN(C3CCC3)CC1)O2 [Example 24, 1′-Cyclobutyl-6-(3-(2-pyridazin-3-one)propyloxy]-spiro[3,4-dihydrobenzopyran-2,4′-piperidine]]	–	< 200 nM	< 200 nM
O=c1cccnn1CC(O)COc1ccc2c(c1)CCC1(CCN(C3CCC3)CC1)O2 (stereo not drawn) [Example 25, 1′-Cyclobutyl-6-(3-(2-pyridazin-3-one)-2-hydroxypropyloxy]-spiro[3,4-dihydrobenzopyran-2,4′-piperidine]]	–	< 200 nM	< 200 nM
O=c1cc(-c2ccc3c(c2)COC2(CCN(C4CCC4)CC2)O3)cn[nH]1 [Example 26]	–	< 200 nM	< 200 nM
Cc1cc2c(cc1-c1ccc(=O)n(C)n1)COC1(CCN(C3CCC3)CC1)O2 [Example 30]	–	< 200 nM	< 200 nM
Cc1c(-c2ccc(=O)[nH]n2)ccc2c1COC1(CCN(C3CCC3)CC1)O2 [Example 31]	–	< 200 nM	< 200 nM
CC1(C)CC(c2ccc3c(c2)COC2(CCN(C4CCC4)CC2)O3)=NNC1=O [Example 34, 1′-Cyclobutyl-6-[5H-4,4-dimethylpyridazin-3-one)-spiro[1,3-benzodioxine-2,4′-piperidine]]	–	< 200 nM	< 200 nM
O=C1NN=C(c2ccc3c(c2)COC2(CCN(C4CCC4)CC2)O3)C2CC12 (stereo not drawn) [Example 37]	–	< 200 nM	< 200 nM
O=C1NN=C(c2ccc3c(c2)COC2(CCN(C4CCC4)CC2)O3)C2CCC12 (stereo not drawn) [Example 38]	–	< 200 nM	< 200 nM
CC1CC(=O)NN=C1c1ccc2c(c1)COC1(CCN(C3CCC3)CC1)O2 (stereo not drawn) [Example 39]	–	< 200 nM	< 200 nM
Cc1cc(=O)[nH]nc1-c1ccc2c(c1)COC1(CCN(C3CCC3)CC1)O2 [Example 40]	–	< 200 nM	< 200 nM
Cc1c(-c2ccc3c(c2)COC2(CCN(C4CCC4)CC2)O3)n[nH]c(=O)c1C [Example 41]	–	< 200 nM	< 200 nM

Source: US8524713B2, “Substituted spirocyclic piperidine derivatives as histamine-3 (H3) receptor ligands” (Cephalon, Inc, priority 2008, dated 2013)
